“And” between values parts separate entries of the source, which are not always exact repeats. Identical values can stand only once. Counter-ions that a name gives are not always drawn. Like-named read-outs stand apart in the source and are kept apart here.
What was measured:
[1] = Plasma pharmacokinetics after IV or PO administration (Study 16009-12001); assay type: in vivo, male Balb/c mice; details: male mice; for Cmax: read-out: Cmax (peak concentration)
From the text: Method for FIG. 11. […] The test article, PMX-30063, was corrected for salt form but no adjustment was made for purity. […] The resulting formulation was clear colorless solution (pH 7) and was stored at room temperature until administered. The formulated solution was clear and colorless until dosing was completed.
A total of 60 male Balb/c mice, approximately 4-7 weeks of age at receipt with body weight of 18.0 g to 21.9 g were used in this study.
Three mice in each group were used for blood at each time point at post-dose at 5 minutes, 15 minutes, 30 minutes, 1, 2, 4, 8, and 24 hours for Groups 1-2. Blood samples (at least 300 μL/sample) were collected via cardiac puncture after euthanasia by carbon dioxide inhalation at appropriate time points. Samples were placed in tubes containing K2-EDTA, and then centrifuged at approximately 8,000 rpm for 6 minutes at 4° C. and the resulting plasma were separated and stored frozen at approximately −80° C.
The pharmacokinetic (PK) analysis were conducted by Medicilon Preclinical Research (Shanghai) LLC. The PK parameters were determined by the Study Director for the test article from mean concentration-time data in the test species. A non-compartmental module of WinNonlin™ Professional 5.2 was used to calculate parameters. Any BLQs (LLOQ=2.5 ng/mL for plasma and LLOQ=500 ng/g for small intestine) were replaced with a value of “0”, and the mean value and its standard deviation (SD) are calculated with these replaced values.
Plasma samples (50 μL) were transferred to centrifuge tube, then 250 μL IS solution (50 ng/mL Carvedilol) was added to it. After vortexing for 1 minute and centrifuging for 5 minutes at 15,000 rpm, 100 μL aliquots of supernatant were transferred to glass autosampler vials.

human PDE4B2 = human PDE4B2 (Homo sapiens, UniProt Q07343); assay: PDE-Glo phosphodiesterase assay, PDE4; assay type: biochemical; details: 8 ng PDE4B, 1 μM cAMP substrate, 15 min pre-incubation; read-out: IC50, inhibition of PDE4
Chain of human PDE4B2 (Q07343 1-564 isoform Q07343-2): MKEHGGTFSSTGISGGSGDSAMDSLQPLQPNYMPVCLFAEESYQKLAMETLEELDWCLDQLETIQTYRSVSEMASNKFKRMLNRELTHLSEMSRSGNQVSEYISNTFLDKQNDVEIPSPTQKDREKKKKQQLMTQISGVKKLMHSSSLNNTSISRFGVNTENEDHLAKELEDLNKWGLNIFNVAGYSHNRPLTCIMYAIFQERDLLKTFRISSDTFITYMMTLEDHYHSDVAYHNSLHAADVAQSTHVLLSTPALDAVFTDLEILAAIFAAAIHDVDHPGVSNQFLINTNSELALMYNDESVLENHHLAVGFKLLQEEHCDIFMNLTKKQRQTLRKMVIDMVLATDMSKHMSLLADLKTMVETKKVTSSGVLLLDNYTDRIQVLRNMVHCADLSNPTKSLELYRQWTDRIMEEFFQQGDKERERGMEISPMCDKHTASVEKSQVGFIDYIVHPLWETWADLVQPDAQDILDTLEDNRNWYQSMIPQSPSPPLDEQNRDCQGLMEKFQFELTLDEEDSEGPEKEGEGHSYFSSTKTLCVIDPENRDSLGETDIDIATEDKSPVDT
Method: Method for FIG. 1. […] The compounds and PDE4B (BPS Biosciences, San Diego, CA) were mixed and pre-incubated at room temperature for 15 minutes. Substrate was added and the reaction was incubated for 7 minutes at room temperature. Data are presented as luminescence units (RLU).
Method for FIG. 2. Phosphodiesterase inhibition assays of PDE4 were performed, using PMX-60056. The PDE-Glo phosphodiesterase assay (Promega, Madison, WI, USA Catalog No. V1361) was performed using 8 ng of PDE4B (BPS Biosciences, San Diego, CA). […] The compounds and PDE4B were mixed and pre-incubated at room temperature for 15 minutes. Substrate was added and the reaction was incubated for 7 minutes at room temperature. Data are presented as luminescence units (RLU).
Phosphodiesterase type 4 (PDE4) is predominant phosphodiesterase expressed in neutrophils, T cells and macrophages. PDE inhibitors show broad spectrum of anti-inflammatory effects in almost all inflammatory cells. PDE4 inhibitors, block the degradative action of PDE4 on cAMP, thereby increasing intracellular levels of cAMP levels which mediate phosphorylation of protein kinases. […] Data are presented as luminescence units (RLU).
The PDE-Glo phosphodiesterase assay was performed according to the Method described for FIG. 2, using 8 ng of PDE4B, 1 μM cAMP substrate PMX-60056. Data are presented as luminescence units (RLU). […]

Which results are given for `N=C(N)NCCCCC(=O)Nc1cc(C(F)(F)F)cc(NC(=O)c2cc(C(=O)Nc3cc(C(F)(F)F)cc(NC(=O)CCCCNC(=N)N)c3O[C@@H]3CCNC3)ncn2)c1O[C@@H]1CCNC1` [PMX-30063, N^4,N^6-bis(2-((R)-pyrrolidin-3-yloxy)-3-((4-carbamoylbutyl)guanidine)-5-(trifluoromethyl)phenyl)pyrimidine-4,6-dicarboxamide tetrahydrochloride salt]?
AUC(0-inf) ([1]; Balb/c, mouse, IV 5 mg/kg): 97800 ng·h/mL; AUC(0-t) ([1]; Balb/c, mouse, IV 5 mg/kg): 97700 ng·h/mL; Tmax ([1]; Balb/c, mouse, IV 5 mg/kg): 0.083 h; clearance ([1]; Balb/c, mouse, IV 5 mg/kg): 0.852 mL/min/kg; half-life ([1]; Balb/c, mouse, IV 5 mg/kg): 2.76 h; Cmax ([1]; Balb/c, mouse, IV 5 mg/kg): 48400 ng/mL; Vd ([1]; Balb/c, mouse, IV 5 mg/kg, read-out: Vz): 0.204 L/kg; AUC(0-inf) ([1]; Balb/c, mouse, PO 10 mg/kg): 113 ng·h/mL; AUC(0-t) ([1]; Balb/c, mouse, PO 10 mg/kg): 111 ng·h/mL; Tmax ([1]; Balb/c, mouse, PO 10 mg/kg): 2 h; half-life ([1]; Balb/c, mouse, PO 10 mg/kg): 1.26 h; Cmax ([1]; Balb/c, mouse, PO 10 mg/kg): 33.7 ± 8.56 ng/mL; MRT(0-∞) ([1]; IV 5 mg/kg): 2.86 H; F* ([1]; PO 10 mg/kg vs IV 5 mg/kg): 0.0579%; MRT(0-∞) ([1]; PO 10 mg/kg): 2.68 H; IC50 (human PDE4B2): ~3 µM and 3 µM
